The results in this text go back to patent US20220332700A1, “NOVEL APOPTOSIS SIGNAL-REGULATING KINASE 1 INHIBITORS” (MANKIND PHARMA LTD, priority 2019, published 2022).

In test [1] the target is T1, Human ASK1 (Homo sapiens, UniProt Q99683).
T1 construct: expressed in transfected cells; host or cells: HEK293T-AP1
T1 sequence (Q99683 1-1374): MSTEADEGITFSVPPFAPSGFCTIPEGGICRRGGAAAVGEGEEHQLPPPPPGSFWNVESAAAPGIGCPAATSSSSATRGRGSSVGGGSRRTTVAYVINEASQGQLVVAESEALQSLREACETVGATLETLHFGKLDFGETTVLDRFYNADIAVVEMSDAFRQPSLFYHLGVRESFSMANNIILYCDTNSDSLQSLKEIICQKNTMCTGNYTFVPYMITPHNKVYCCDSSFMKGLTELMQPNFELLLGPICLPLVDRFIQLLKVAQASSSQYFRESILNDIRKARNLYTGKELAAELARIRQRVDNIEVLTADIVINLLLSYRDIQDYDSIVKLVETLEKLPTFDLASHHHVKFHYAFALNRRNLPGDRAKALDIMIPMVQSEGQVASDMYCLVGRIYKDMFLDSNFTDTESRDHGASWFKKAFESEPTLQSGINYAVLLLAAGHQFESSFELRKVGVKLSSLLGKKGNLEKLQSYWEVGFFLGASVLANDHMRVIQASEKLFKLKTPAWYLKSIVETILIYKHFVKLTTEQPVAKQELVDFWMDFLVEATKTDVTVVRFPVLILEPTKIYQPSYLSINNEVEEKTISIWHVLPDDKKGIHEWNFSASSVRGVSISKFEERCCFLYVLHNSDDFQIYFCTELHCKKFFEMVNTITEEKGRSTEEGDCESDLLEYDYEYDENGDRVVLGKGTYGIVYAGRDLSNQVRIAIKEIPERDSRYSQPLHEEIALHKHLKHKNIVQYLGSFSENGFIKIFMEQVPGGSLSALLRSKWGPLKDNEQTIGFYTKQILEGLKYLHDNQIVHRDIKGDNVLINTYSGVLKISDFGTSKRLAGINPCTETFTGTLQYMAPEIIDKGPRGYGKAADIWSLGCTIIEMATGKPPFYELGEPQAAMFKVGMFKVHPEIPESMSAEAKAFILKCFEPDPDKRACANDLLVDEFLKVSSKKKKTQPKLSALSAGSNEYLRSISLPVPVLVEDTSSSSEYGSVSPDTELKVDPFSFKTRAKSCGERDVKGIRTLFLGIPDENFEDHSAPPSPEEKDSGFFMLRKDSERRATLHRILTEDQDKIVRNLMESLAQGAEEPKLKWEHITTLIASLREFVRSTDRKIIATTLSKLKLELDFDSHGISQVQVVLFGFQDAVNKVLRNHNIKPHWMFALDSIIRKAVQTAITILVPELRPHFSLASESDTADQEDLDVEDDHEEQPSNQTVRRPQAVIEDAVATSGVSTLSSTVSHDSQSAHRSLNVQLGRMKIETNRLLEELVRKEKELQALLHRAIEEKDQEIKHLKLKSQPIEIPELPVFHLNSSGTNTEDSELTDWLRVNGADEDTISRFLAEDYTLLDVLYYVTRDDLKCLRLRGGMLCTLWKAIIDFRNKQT
The experiment in a line: ASK1 Cell Based Assay (phospho p38 read out in hASK1 transfected HEK293T-AP1 cells). To be noted: HEK293T-AP1 cells, 1 mM hydrogen peroxide, phospho p38; read-out: Cell Based Assay IC50. The method, boiled down: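 HEK293T-AP1 cells transfected with hASK1, after 24 h treated with compounds for 24 h (0.2% DMSO), then stimulated with 1 mM H2O2 for 1 h with compounds present.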

The target of test [2] is T2, recombinant ASK1 (Homo sapiens, UniProt Q99683).
T2 construct: purchased Carna Biosciences
The experiment in a line: ASK1 Biochemical Assay (HTRF KinEASE-STK S3). The note with it: ATP 100 μM; read-out: Biochemical Assay IC50. The procedure, abridged: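 Recombinant ASK1 (5 ng) preincubated with compound 1 h at 23 °C in MOPS pH 7 buffer with Mg-acetate, DTT, NP40, glycerol, BSA and 1% DMSO. Inhibition calculated against vehicle after substrate-blank subtraction.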
A general note: TR-FRET usually uses a lanthanide donor and a delayed reading to cut background.

One may read the IC50 as the midpoint of a concentration-inhibition curve. `CC(C)n1cnnc1-c1cccc(N2CCN(c3ccc(C(=O)NC4CC4)nc3)C2=O)n1` [Example 1109, N-cyclopropyl-5-(3-(6-(4-isopropyl-4H-1,2,4-triazol-3-yl)pyridin-2-yl)-2-oxoimidazolidin-1-yl)pyridine-2-carboxamide]: the IC50 was over 1000 nM in test [1] and under 100 nM in test [2].

In the case of `CC(C)NC(=O)c1ccc(N2CCN(c3cccc(-c4nncn4C(C)C)n3)C2=O)cn1` [Example 1110, N-isopropyl-5-(3-(6-(4-isopropyl-4H-1,2,4-triazol-3-yl)pyridin-2-yl)-2-oxoimidazolidin-1-yl)pyridine-2-carboxamide], the IC50 in test [1] is over 1000 nM; in test [2], under 100 nM.

For `CC(C)n1cnnc1-c1cccc(N2CCN(Cc3ccc(N4CCOCC4)cc3)C2=O)n1` [Example 1112, 1-(4-morpholinobenzyl)-3-(6-(4-isopropyl-4H-1,2,4-triazol-3-yl)pyridin-2-yl)imidazolidin-2-one], the 50% inhibitory concentration (IC50) in test [1] was over 1000 nM; in test [2] it was under 100 nM.

For the molecule `CC(C)n1cnnc1-c1cccc(N2CCN(c3ccc(C(C#N)N4CCOCC4)nc3)C2=O)n1` (stereo not shown) [Example 1113, 2-(5-(3-(6-(4-isopropyl-4H-1,2,4-triazol-3-yl)pyridin-2-yl)-2-oxoimidazolidin-1-yl)pyridin-2-yl)-2-morpholinoacetonitrile], the IC50 in test [1] was over 1000 nM; in test [2] it was under 100 nM.

Take `CC(c1ccc(N2CCN(c3cccc(-c4nncn4C(C)C)n3)C2=O)cc1)N1CCOCC1` (stereo not shown) [Example 1114, 1-(6-(4-isopropyl-4H-1,2,4-triazol-3-yl)pyridin-2-yl)-3-(4-(1-morpholinoethyl)phenyl)imidazolidin-2-one]: the values for the IC50 in test [1] and in test [2] were over 1000 nM and under 10 nM, respectively.

In the case of `CC(C)n1cnnc1-c1cccc(N2CCN(c3ccc(N4CC(C(N)=O)C4)nc3)C2=O)n1` [Example 1115, 1-(5-(3-(6-(4-isopropyl-4H-1,2,4-triazol-3-yl)pyridin-2-yl)-2-oxoimidazolidin-1-yl)pyridin-2-yl)azetidine-3-carboxamide], the IC50 in test [1] was over 1000 nM; in test [2], under 100 nM.

On to `CNC(=O)C1CCN(c2ccc(N3CCN(c4cccc(-c5nncn5C(C)C)n4)C3=O)cn2)CC1` [Example 1116, 1-(5-(3-(6-(4-isopropyl-4H-1,2,4-triazol-3-yl)pyridin-2-yl)-2-oxoimidazolidin-1-yl)pyridin-2-yl)-N-methylpiperidine-4-carboxamide], for which the IC50 in test [1] was under 100 nM; in test [2] it was under 50 nM.

On to `COCCCNc1ccc(N2CCN(c3cccc(-c4nncn4C(C)C)n3)C2=O)cn1` [Example 1118, 1-(6-(3-methoxypropylamino)pyridin-3-yl)-3-(6-(4-isopropyl-4H-1,2,4-triazol-3-yl)pyridin-2-yl)imidazolidin-2-one], for which the IC50 in test [1] was over 1000 nM; in test [2] it was under 100 nM.

For `CC(C)n1cnnc1-c1cccc(N2CCN(c3ccc(S(C)(=O)=O)s3)C2=O)n1` [Example 1123, 1-(6-(4-isopropyl-4H-1,2,4-triazol-3-yl)pyridin-2-yl)-3-(5-(methylsulfonyl)thiophen-2-yl)imidazolidin-2-one], the IC50 in test [1] was over 1000 nM; in test [2], over 100 nM.

In the case of `CC(C)n1cnnc1-c1cccc(N2CCN(c3ccc4c(c3)C(C)(C)CS4(=O)=O)C2=O)n1` [Example 1124, 1-(3,3-dimethyl-1,1-dioxido-2,3-dihydrobenzo[b]thiophen-5-yl)-3-(6-(4-isopropyl-4H-1,2,4-triazol-3-yl)pyridin-2-yl)imidazolidin-2-one], the half-inhibitory concentration (IC50) was over 1000 nM in test [1] and under 100 nM in test [2].

`CC(C)n1cnnc1-c1cccc(N2CCN(c3ccc4c(ccn4C)c3)C2=O)n1` [Example 1125, 1-(6-(4-isopropyl-4H-1,2,4-triazol-3-yl)pyridin-2-yl)-3-(1-methyl-1H-indol-5-yl)imidazolidin-2-one]: the IC50 in test [1] is over 1000 nM; in test [2], under 100 nM.

`CC(C)n1cnnc1-c1cccc(N2CCN(c3ccc(OCCS(C)(=O)=O)cc3)C2=O)n1` [Example 1126, 1-(4-(2-(methylsulfonyl)ethoxy)phenyl)-3-(6-(4-isopropyl-4H-1,2,4-triazol-3-yl)pyridin-2-yl)imidazolidin-2-one]: the IC50 in test [1] is over 1000 nM; in test [2] it was under 100 nM.

Consider `CNC(=O)C1CCN(Cc2ccc(N3CCN(c4cccc(-c5nncn5C(C)C)n4)C3=O)cc2)CC1` [Example 1128, 1-(4-(3-(6-(4-isopropyl-4H-1,2,4-triazol-3-yl)pyridin-2-yl)-2-oxoimidazolidin-1-yl)benzyl)-N-methylpiperidine-4-carboxamide], for which the half-maximal inhibitory concentration (IC50) in test [1] was over 1000 nM; in test [2], under 100 nM.

For `CC(C)C(c1ccc(N2CCN(c3cccc(-c4nncn4C(C)C)n3)C2=O)cc1)N1CCOCC1` (stereo not shown) [Example 1129, 1-(6-(4-isopropyl-4H-1,2,4-triazol-3-yl)pyridin-2-yl)-3-(4-(2-methyl-1-morpholinopropyl)phenyl)imidazolidin-2-one], the IC50 in test [1] is over 1000 nM; in test [2], under 100 nM.

Take `CNC(=O)[C@@H]1CCN(c2ccc(N3CCN(c4cccc(-c5nncn5C(C)C)n4)C3=O)cc2)C1` [Example 1130, (R)-1-(4-(3-(6-(4-isopropyl-4H-1,2,4-triazol-3-yl)pyridin-2-yl)-2-oxoimidazolidin-1-yl)phenyl)-N-methylpyrrolidine-3-carboxamide]: the 50% inhibitory concentration (IC50) in test [1] was under 100 nM; in test [2], under 50 nM.

Consider `CNC(=O)[C@H]1CCN(c2ccc(N3CCN(c4cccc(-c5nncn5C(C)C)n4)C3=O)cc2)C1` [Example 1131, (S)-1-(4-(3-(6-(4-isopropyl-4H-1,2,4-triazol-3-yl)pyridin-2-yl)-2-oxoimidazolidin-1-yl)phenyl)-N-methylpyrrolidine-3-carboxamide], for which the IC50 was 1560 nM in test [1] and under 100 nM in test [2].

In the case of `CC(C)n1cnnc1-c1cccc(N2CCN(c3ccc(NC4CCOC4)cc3)C2=O)n1` (stereo not shown) [Example 1133, 1-(6-(4-isopropyl-4H-1,2,4-triazol-3-yl)pyridin-2-yl)-3-(4-(tetrahydrofuran-3-ylamino)phenyl)imidazolidin-2-one], the results for the IC50 in test [1] and in test [2] were over 1000 nM and under 100 nM, respectively.

For the molecule `CC(C)C(C#N)C1CN(c2ccc(N3CCN(c4cccc(-c5nncn5C(C)C)n4)C3=O)cc2)C1` (stereo not shown) [Example 1134, 2-(1-(4-(3-(6-(4-isopropyl-4H-1,2,4-triazol-3-yl)pyridin-2-yl)-2-oxoimidazolidin-1-yl)phenyl)azetidin-3-yl)-3-methylbutanenitrile], the IC50 in test [1] was over 1000 nM; in test [2], under 100 nM.

Regarding `CC(C)n1cnnc1-c1cccc(N2CCN(c3ccc(N4CCN(C)C(=O)C4)cc3)C2=O)n1` [Example 1135, 4-(4-(3-(6-(4-isopropyl-4H-1,2,4-triazol-3-yl)pyridin-2-yl)-2-oxoimidazolidin-1-yl)phenyl)-1-methylpiperazin-2-one], the IC50 in test [1] is over 1000 nM; in test [2], under 100 nM.

Turning to `CNC(=O)N1CCN(c2ccc(N3CCN(c4cccc(-c5nncn5C(C)C)n4)C3=O)cc2)CC1` [Example 1136, 4-(4-(3-(6-(4-isopropyl-4H-1,2,4-triazol-3-yl)pyridin-2-yl)-2-oxoimidazolidin-1-yl)phenyl)-N-methylpiperazine-1-carboxamide], the half-maximal inhibitory concentration (IC50) was over 100 nM in test [1] and under 100 nM in test [2].
